Measurements: patent EP1285918A1, “C7 Ester substituted taxanes as antitumor agents” (Florida State University Research Foundation, Inc., priority 2001, dated 2003)
pIC50: −log10 of the molar value. Where two headings read alike, the source gives them in different places.

Columns and labels:
SK-MES carcinoma = experiment: In vivo evaluation against SK-MES human lung carcinoma xenograft, i.v. (Example 11); details: for Mean Score: tumor score 1 to 10 per mouse, group mean
Procedure: Two antitumor compounds were formulated for an i.v. dosing regime prepared in the following vehicle: 10% ethanol, 10% Cremophor and 80% isotonic saline. […] Other compounds were formulated similarly.
The MTDs for the antitumor compounds were calculated from earlier single dose data for mice receiving i.v. administration of these compounds. […] Vehicle control animals were dosed twice intravenously with half the total volume being given separated by one hour. The study was terminated at Day 60.
The results are summarized in Table 1 and include mean days of survival (MDS), number of toxic deaths, number of survivors, number of complete or partial responses, and number with stable disease. The mean days of survival is the number of days after which a neoplasm reached a size of 1.5 g and the animal was euthanized. A complete response is obtained if the tumor is not palpable at the end of the study. A partial response is obtained if the tumor shrinks to a size smaller than its size on Day 1 of the study.
A tumor scoring system was designed to provide a more quantitative ranking of efficacy (therapeutic potential) among the antitumor agents evaluated against the different human solid tumor xenografts. Each mouse in a study was given a score of from 1 to 10 at the end of the study. The scores can be summarized as follows:
The individual score for each mouse was averaged into a mean score for each treatment group. […]

[1] = system: HCT116 human colon carcinoma xenograft; details: for long term survivors at the end of the experiment: HCT116, i.v. and oral groups together (out of thirty), Day 60; for Survivors / Complete Responses / Partial Responses / Stable Disease / Toxic Deaths: 10 mice/group, study end Day 60
Source text: Six groups consisting of ten mice in each group were made up of female Nu/Nu mice (8-9 weeks of age; implanted with 1 mm^3 HCT116 human […] carcinoma fragments in the flank). Another six groups consisting of ten mice in each group were made up of male Nu/Nu mice (6-7 weeks of age; implanted with 1 mm^3 HCT116 human […] carcinoma fragments in the flank). […] The study was terminated on Day 60.
The results are summarized in Table 19 for the female mice and Table 20 for the male mice. Included are mean days of survival (MDS), number of toxic deaths, number of survivors, number of complete or partial responses, and number with stable disease. The mean days of survival is the number of days after which an […] neoplasm reached a size of 1.5 g and the animal was euthanized. A complete response is obtained if the tumor is not palpable at the end of the study. A partial response is obtained if the tumor shrinks to a size smaller than its size on Day 1 of the study. […]

HCT116 = experiment: In Vitro cytotoxicity measured by the cell colony formation assay; type: cell-based; details: Homo sapiens, HCT-116; 72 h drug incubation, colonies counted after 7 days; concentration producing 50% inhibition of colony formation; read-out: IN VITRO ID 50 (nm) HCT116
[2] = system: A2780 Human Ovarian Carcinoma Xenografts
Procedure: Other antitumor compounds were similarly formulated. […] The dosing volume was 0.3 ml per 20 g mouse.
Female NCr-nude mice (implanted subcutaneously with 1 mm^3 A2780 ovarian carcinoma fragments in the flank) were sorted into treatment groups of five mice each, except for the Taxotere treatment group including six mice. […] Dosing was initiated on Day 1. The antitumor compounds were given i.v. at an estimated maximum tolerated dose (MTD) appropriate for each agent on a qd x 1 schedule (single administration of compound). […] Taxotere was given i.v. on a qd x 1 schedule at a dose of 70 mg/kg. The vehicle was administered i.v. to control mice in Group 1 on the qd x 1 schedule. Treatment groups are detailed in Table 7. The study was terminated on Day 60.
The results are summarized in Table 8 and include mean days of survival (MDS), number of toxic deaths, number of survivors, number of complete or partial responses, and number with stable disease. The mean days of survival is the number of days after which a neoplasm reached a size of 2.0 g and the animal was euthanized. A complete response is obtained if the tumor is not palpable at the end of the study. A partial response is obtained if the tumor shrinks to a size smaller than its size on Day 1 of the study.

[3] = i.v. split dose qd x 1 at MTD (Taxol 36 mg/kg, 1393 72.1 mg/kg), 6 mice/group, Day 60
[4] = female mice, 104 mg/kg i.v. in 5% ethanol and 95% Liposyn II (Group 4)
[5] = female mice, 104 mg/kg i.v. in 5% ethanol and 95% Liposyn III (Group 5)
[6] = female mice, 104 mg/kg oral in 5% ethanol, 5% Cremophor and 90% isotonic saline (Group 6)
[7] = male mice, 73 mg/kg i.v. in 5% ethanol and 95% Liposyn II (Group 4)
[8] = male mice, 73 mg/kg i.v. in 5% ethanol and 95% Liposyn III (Group 5)
[9] = male mice, 73 mg/kg oral in 5% ethanol, 5% Cremophor and 90% isotonic saline (Group 6)
[10] = i.v. split dose qd x 1 at MTD (Taxol 36 mg/kg, 1393 72.1 mg/kg)
[11] = Taxol i.p. 15 mg/kg qd x 5, 5 mice, Day 60
[12] = i.v. qd x 1 (mg/kg: Taxol 24, 1351 75.3, 1401 107.6, 1418 107.6, Taxotere 70), Day 60
[13] = female mice, 18 mg/kg i.v. qd x 5
[14] = male mice, 18 mg/kg i.v. qd x 5

## CCC(=O)OC1CC2OCC2(OC(C)=O)C2C(OC(=O)c3ccccc3)C3(O)CC(OC(=O)C(O)C(NC(=O)OC(C)(C)C)c4ccco4)C(C)=C(C(O)C(=O)C12C)C3(C)C (stereo not drawn) [Compound 1393, 3'-Desphenyl-3'-(2-furyl)-7-propionyl taxotere]
SK-MES carcinoma; [3]
  Complete Response: six
[1]; female mice, 1393 104 mg/kg
  long term survivors at the end of the experiment: twenty-eight
[1]; male mice, 1393 73 mg/kg
  long term survivors at the end of the experiment: Twenty-nine
[1]; [4]
  Survivors: 10
[1]; [5]
  Survivors: 10
[1]; [6]
  Survivors: 9
[1]; [7]
  Survivors: 10
[1]; [8]
  Survivors: 8
[1]; [9]
  Survivors: 10

## CC(=O)O[C@H]1C(=O)[C@@]2(C)[C@H]([C@H](OC(=O)c3ccccc3)[C@]3(O)C[C@H](OC(=O)[C@H](O)[C@@H](NC(=O)c4ccccc4)c4ccccc4)C(C)=C1C3(C)C)[C@]1(OC(C)=O)CO[C@@H]1C[C@@H]2O [Taxol, paclitaxel, reference compound]
HCT116
  pIC50: 8.68
SK-MES carcinoma; Taxol 36 mg/kg i.v.
  survival extension compared to vehicle controls: 30%
SK-MES carcinoma; i.v. at MTD
  tolerability: well tolerated
SK-MES carcinoma; i.v. split dose qd x 1 at MTD (Taxol 36 mg/kg, 1393 72.1 mg/kg), 6 mice/group, 1.5 g cut-off, Day 60
  MDS (n): 16 ± 2.0 (6) days
SK-MES carcinoma; [3]
  Complete Response: 0
  Partial Response: 0
  Stable Disease: 0
  Survivors: 0
  Toxic Deaths: 0
SK-MES carcinoma; [10]
  Mean Score: 1.3 ± 0.3
[2]; Taxol i.p. 15 mg/kg qd x 5
  toxicity: highly toxic
[2]; [11]
  Complete Response: 0
  Partial Response: 0
  Stable Disease: 0
  Survivors: 0
[2]; Taxol i.p. 15 mg/kg qd x 5, tumor score 1 to 10, group mean
  Mean Score: 0.6 ± 0.6
[2]; i.v. qd x 1 (mg/kg: Taxol 24, 1351 75.3, 1401 107.6, 1418 107.6, Taxotere 70), 2.0 g cut-off, Day 60
  MDS (n): 21.9 ± 5.5 (5) days
[2]; [12]
  Complete Response: 0
  Partial Response: 0
  Survivors: 1
  Toxic Deaths: 0
[2]; i.v. qd x 1 (mg/kg: Taxol 24, 1351 75.3, 1401 107.6, 1418 107.6, Taxotere 70), tumor score 1 to 10, group mean
  Mean Score: 1.8 ± 0.4
[2]; i.v. qd x 1 (mg/kg: Taxol 24, 1418 107.6, Taxotere 70)
  survival extension compared to Group 1 controls: 87%
[1]; [13]
  Complete Responses: 4
  Partial Responses: 1
  Stable Disease: 1
  Survivors: 6
  Toxic Deaths: 1
[1]; [14]
  Complete Responses: 1
  Partial Responses: 2
  Stable Disease: 1
  Survivors: 4
  Toxic Deaths: 0

## CCC(=O)O[C@H]1C[C@H]2OC[C@@]2(OC(C)=O)[C@H]2[C@H](OC(=O)c3ccccc3)[C@]3(O)C[C@H](OC(=O)[C@H](O)[C@@H](NC(=O)OC(C)(C)C)c4ccco4)C(C)=C([C@@H](O)C(=O)[C@]12C)C3(C)C [Compound 1393, 3'-Desphenyl-3'-(2-furyl)-7-propionyl taxotere]
SK-MES carcinoma; 1393 72.1 mg/kg i.v.
  complete response rate: 100%
  days between which complete responses occurred: 14 to 24 days
SK-MES carcinoma; [3]
  Complete Response: 6
  Partial Response: 0
  Stable Disease: 0
  Toxic Deaths: 0
SK-MES carcinoma; [10]
  Mean Score: 10+0
[1]; [4]
  Partial Responses: 3
  Stable Disease: 2
  Toxic Deaths: 0
[1]; [5]
  Complete Responses: 5
  Partial Responses: 3
  Stable Disease: 2
  Toxic Deaths: 0
[1]; [6]
  Complete Responses: 4
  Partial Responses: 3
  Stable Disease: 2
  Toxic Deaths: 0
[1]; [7]
  Complete Responses: 7
  Partial Responses: 1
  Stable Disease: 2
  Toxic Deaths: 0
[1]; [8]
  Complete Responses: 6
  Partial Responses: 0
  Stable Disease: 2
[1]; male mice, 73 mg/kg i.v. in 5% ethanol and 95% Liposyn III (Group 5), footnote: one death due to an unknown reason
  Toxic Deaths: 2^a
[1]; [9]
  Complete Responses: 6
  Partial Responses: 3
  Stable Disease: 1
  Toxic Deaths: 0
